The assay deals with HCT-116. In words: Cytotoxicity against human HCT-116 cells assessed as inhibition of cell viability incubated for 48 hrs by CCK8 assay. The note with it: HCT-116, 48 h. It counts as functional, cell-based. In general terms: Formazan colour is commonly taken as a measure of viable cells.

Usually IC50 stands for the concentration that gives 50% inhibition.

For `CC(=O)N1CCC(NC(=O)c2ccc3c(c2)C(=O)/C(=C2/C(=O)Nc4ccccc42)N3)CC1`, the concentration for half-maximal inhibition (IC50) is 4.05 µM.

In the case of `C=CC(=O)N1CCN(c2ccc(NC(=O)c3ccc4c(c3)C(=O)/C(=C3/C(=O)Nc5ccccc53)N4)cc2)CC1`, the half-maximal inhibitory concentration (IC50) is over 20 µM. As for `O=C1Nc2ccccc2/C1=C1/Nc2ccc(C(=O)N3CCN(C(=O)CCl)CC3)cc2C1=O`, the figure is 2.31 µM; as for `C#CC(=O)N1CCN(CCNC(=O)c2ccc3c(c2)C(=O)/C(=C2/C(=O)Nc4ccccc42)N3)CC1`, 6.31 µM; as for `C#CC(=O)N1CCC(CCNC(=O)c2ccc3c(c2)C(=O)/C(=C2/C(=O)Nc4ccccc42)N3)CC1`, 1.85 µM. The same measure for `O=C1Nc2ccccc2/C1=C1/Nc2ccc(C(=O)Nc3ccc(N4CCN(C(=O)CCl)CC4)cc3)cc2C1=O`: 7.54 µM; for `C#CC(=O)N1CCC(CNC(=O)c2ccc3c(c2)C(=O)/C(=C2/C(=O)Nc4ccccc42)N3)CC1`: 1 µM. The same measure for `C=CC(=O)CCCCCC(=O)c1ccc2c(c1)C(=O)/C(=C1/C(=O)Nc3ccccc31)N2`: 13.1 µM; for `C=CC(=O)CCC(=O)c1ccc2c(c1)C(=O)/C(=C1/C(=O)Nc3ccccc31)N2`: over 20 µM. With `O=C1Nc2ccccc2/C1=C1/Nc2ccc(C(=O)NCCC3CCN(C(=O)CCl)CC3)cc2C1=O`, the IC50 was 0.72 µM. As for `O=C1Nc2ccccc2/C1=C1/Nc2ccc(C(=O)Nc3ccc(C4CCN(C(=O)CCl)CC4)cc3)cc2C1=O`, the figure is over 20 µM; as for `C#CC(=O)N1CCN(NC(=O)c2ccc3c(c2)C(=O)/C(=C2/C(=O)Nc4ccccc42)N3)CC1`, 3.47 µM. Turning to `C#CC(=O)CCCCCC(=O)c1ccc2c(c1)C(=O)/C(=C1/C(=O)Nc3ccccc31)N2`, the half-maximal inhibitory concentration (IC50) is 3.53 µM.

In the case of `C#CC(=O)CCCC(=O)c1ccc2c(c1)C(=O)/C(=C1/C(=O)Nc3ccccc31)N2`, the IC50 worked out at 7.4 µM. With `O=C(CCl)CCCC(=O)c1ccc2c(c1)C(=O)/C(=C1/C(=O)Nc3ccccc31)N2`, the 50% inhibitory concentration (IC50) is 3.96 µM. The same measure for `C=CC(=O)N1CCN(CCNC(=O)c2ccc3c(c2)C(=O)/C(=C2/C(=O)Nc4ccccc42)N3)CC1`: 17.5 µM.

These data come from ChEMBL document CHEMBL5634124, “Discovery and optimization of indirubin derivatives as novel ferroptosis inducers for the treatment of colon cancer” (Eur J Med Chem, 2023).
